Data taken from patent US11098266B2, “Organic compounds” (Givaudan SA, priority 2017, dated 2021).

What was measured:
[1] = GC-odor threshold values (gas chromatograph with sniff port, panel of trained evaluators); settings: for odour threshold value geometric mean: absolute amount delivered at the sniff port, 5 panelists, identical conditions
From the text: As used herein, “odor threshold value” means the lowest concentration of a volatile organic compound in air which can be detected by smell. Generally speaking, it can be said that a compound with a low odor threshold value is more powerful than a compound with a high odor threshold value and thus allows the use of very low concentration in a fragrance composition to achieve an olfactory effect.
According to standard procedures known to the person skilled in the art, threshold values for volatile perfumery compounds are determined on a gas chromatograph equipped with a sniff port by a panel of trained evaluators. The lowest concentration smelled by each panelist is recorded as the individual threshold value expressed in ng (absolute amount of compound delivered at the sniff port).
Under identical conditions the odour threshold value for the individual compounds was measured.

[2] = system: yellow mealworm; settings: J. Agr. Food Chem. 20(1), 1972, 65-69; cited from earlier work
[3] = ratio of GC-odour threshold values

Row | SMILES | odour threshold value geometric mean [1] [ng] | odour threshold value, times lower compared to Citronellyl Acetate [1, 3] [times] | odour threshold value, times lower compared to Ethyl Citronellyl Carbonate [1, 3] [times] | juvenile hormone activity [2]
1 | COC(=O)OCCC(C)CCC=C(C)C (racemic) [Example 1, 3,7-dimethyloct-6-en-1-yl methyl carbonate] | 16 | 15 | 10 | juvenile hormone activity
2 | CC(=O)OCCC(C)CCC=C(C)C (stereo not drawn) [Citronellyl Acetate, 3,7-dimethyloct-6-en-1-yl acetate] | 241 | – | – | –
3 | CCOC(=O)OCCC(C)CCC=C(C)C (stereo not drawn) [Ethyl Citronellyl Carbonate, 3,7-dimethyloct-6-en-1-yl ethyl carbonate] | 158 | – | – | juvenile hormone activity
4 | CC(C)=CCCC(C)CCOC(=O)Oc1ccccc1 (stereo not drawn) [3,7-Dimethyloct-6-en-1-yl phenyl carbonate] | – | – | – | juvenile hormone activity
5 | CC(C)=CCCC(C)CCO (stereo not drawn) [Citronellol, 3,7-dimethyloct-6-en-1-ol] | 5.2 | – | – | –
